Laboratory results as given in patent publication US8063108B2, “Method for modulating microbial quorum sensing” (priority 2004, dated 2011).

Key:
[1] = molecular target: T1, LasR transcriptional activator (Pseudomonas aeruginosa, UniProt P25084); test: P. putida F117 pKRC12 lasB-GFP reporter assay (secondary screens); assay type: cell-based; conditions: compounds 10 μM, relative fluorescence (fluorescence divided by absorbance at 600 nm) as percent of AHL induced control; for % Activity of AHL Standard, 3 oxo C10HSL: 3oxoC10HSL 100 nM; for % Activity of AHL Standard, 3 oxo C12HSL: 3oxoC12HSL 50 nM
T1 construct: expressed in transfected cells; host or cells: Pseudomonas putida F117 carrying plasmid pKRC12 (lasR, PlasB-gfp)
T1 sequence (P25084 whole entry): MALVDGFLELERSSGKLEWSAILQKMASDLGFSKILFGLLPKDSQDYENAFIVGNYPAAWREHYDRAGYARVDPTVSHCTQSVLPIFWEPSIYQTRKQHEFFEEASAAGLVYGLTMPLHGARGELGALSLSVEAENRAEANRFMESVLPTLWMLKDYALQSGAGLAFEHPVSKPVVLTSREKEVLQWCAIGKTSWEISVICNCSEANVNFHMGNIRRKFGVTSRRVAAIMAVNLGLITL
Procedure: Additional screens were performed similar to screen described in the initial screen, except assays were performed in 96-well microtiter plates at a total volume of 100 μl. The reporter strain P. putida F117 pKRC12 was grown overnight at 28° C. in LB media, diluted with LB media to achieve an optical density of 0.05 at 600 nm (OD600), and 96 μl of cells were aliquoted to 96-well plates. Compounds were added at a final concentration of 100 nm or as otherwise indicated in each experiment and the bacterial cells were incubated with the compounds for approximately 30 minutes prior to the addition of 3oxoC10HSL or 3oxoC12HSL at a final concentration of 100 nM and 50 nM respectively or as indicated for each experiment. Fluorescence was measured at regular intervals after 3 hours using the Wallac Victor2 plate reader with an excitation wavelength of 485 nm and emission detection at 515 nm. Representative results are presented in FIGS. 6A and B and present the percentage of GFP expression activity as a function of expression of the AHL (3oxoC10 HSL) control. The numbers on the X axis refer to the Chembridge library reference number. Effects on growth of the antagonists were determined by measuring the optical density at 600 nm of growing bacterial cultures P. putida F 117 pKRC 12. […] (Reference for P. putida F117 pKRC12: Steidle, A., K. Sigl, R. Schuhegger, A. Ihring, M. Schmid, S. Gantner, M. Stoffels, K. Riedel, M. Givskov, A. Hartmann, C. Langebartels, and L. Eberl. 2001. Visualization of N-acylhomoserine lactone-mediated cell-cell communication between bacteria colonizing the tomato rhizosphere. Appl Environ Microbiol 67:5761-70). […]
This example presents representative results of experiments designed to test the activity of putative antagonists when challenged with different concentrations of synthetic AHLs, particularly 3oxoC12HSL. Assays were conducted with P. putida F117 pKRC12 reporter strain as described in the methods for secondary screens.
Following the initial screens to identify strong antagonists of the LasR transcriptional activator, further investigation of additional compounds in the Chembridge library was carried out. In particular, the experiments described in Example 1 identified three compounds that shared a thiocarbamate structure, as also shown in FIG. 16. To further investigate structure-activity relationships, the inventors examined the antagonist activity of 19 additional compounds with related thiocarbamate structures, using the procedures described in Example 1. The results are presented in Table 4, expressed as the percent activity of the AHL induced control. The % activity represents the relative fluorescence, which is the fluorescence observed in each assay divided by bacterial cell density as measured by absorbance at 600 nm. Compounds were assayed at a concentration of 10 μM. Assays were conducted with P. putida F117 pKRC12 reporter strain as described in the methods for secondary screens. The 3oxoC10HSL and 3oxoC12HSL were assayed at concentrations of 100 nM and 50 nM, respectively.

[2] = molecular target: T1, LasR transcriptional activator; test: Screen signal of thiocarbamate compounds (Table 1), GFP AHL sensor strain with LasR; assay type: cell-based
Source text: A screening system with green fluorescent protein as a reporter gene was adapted in a non-pathogenic species, Pseudomonas putida, closely related to Pseudomonas aeruginosa. A key element involved in the regulation of Pseudomonas aeruginosa, LasR, was engineered into the GFP construct (see FIG. 2), such that expression of GFP is linked to quorum sensing. Pseudomonas putida was then subjected to induction (e.g. by 3oxoC12HsL or 3oxoC10HsL) and/or inhibition by candidate chemical compounds from a commercially available combinatorial library. About 16,000 candidate compounds were individually screened.
Many Gram negative bacteria use quorum sensing, an intercellular signaling network that relies on N-acyl homoserine lactone signal molecules (AHL), to regulate and coordinate behaviors and interactions. Expression of quorum sensing-regulated genes is contingent on a LuxR-type transcriptional regulator and the accumulation of a threshold concentration of the cognate AHL. The experiments in this example relate to screening assays carried out to identify compounds that interfere with virulence gene expression under the control of the LasR transcriptional activator, a member of the LuxR family of transcriptional regulators. The inventors screened a library of approximately 16,000 synthetic compounds for induction and inhibition of quorum sensing in a Pseudomonas putida AHL sensor strain, engineered with the LasR transcriptional activator, which controls virulence gene expression in Pseudomonas aeruginosa. LasR mediated gene expression was monitored by measuring green fluorescent protein (GFP) expression from a transcriptional fusion between GFP and the promoter from lasB, which is under the control of LasR. lasB is a virulence gene that encodes an elastase involved in pathogenesis.
The initial screen utilized 3oxoC10HSL [N-(3-oxo-decanoyl)-L-homoserine lactone] as the inducer of LasR mediated signaling to identify compounds that compete with 3oxoC10HSL for half-maximal activation of GFP expression by the AHL reporter. This strategy enables identification of agonists and antagonists of LasR by pursuing compounds that either reduce or augment the activity of the AHL. The inventors further analyzed the antagonists in competition with 3oxoC12HSL [N-(3-oxo-dodecanoyl)-L-homoserine lactone]. The activities of the agonists were further characterized in the absence of AHL.
To determine the effects of compounds on AHL-mediated quorum sensing, the reporter strain P. putida F117 pKRC12 was grown overnight at 28° C. in LB media, diluted with LB media to achieve an optical density of 0.05 at 600 nm (OD600), and 28 μl aliquots of cells were added to 384-well plates. 16,000 compounds were screened from a subset of the Chembridge DIVERSet, each at a final concentration of 100 nM. Bacterial cells at a final volume of 30 μl were incubated with the compounds for approximately 30 minutes prior to the addition of 3oxoC10HSL, at a final concentration of 100 nM. All of the compounds were dissolved in DMSO. DMSO was included in all controls. A Biomek FX liquid handler was used to dispense the reagents and bacteria into the 384-well plates. The initial screen was performed at room temperature. Fluorescence was measured at regular intervals after 3 hours using the EnVision plate reader (Perkin Elmer, inc.) with an excitation wavelength of 485 nm and emission detection at 510 nm. Compounds that reduced or increased the expression of GFP by a factor of greater than or equal three standard deviations from the mean values for controls containing 3oxoC10HSL were chosen for further analysis. Compounds that increased the expression of GFP by three standard deviations were designated as putative agonists. Compounds that decreased the expression of GFP by three standard deviations were designated as putative antagonists.

| Structure (SMILES) | % Activity of AHL Standard, 3 oxo C10HSL [1] [%] | % Activity of AHL Standard, 3 oxo C12HSL [1] [%] | Signal 671/672 [2] | Signal 673/674 [2] | Signal 674/875 [2] |
| --- | --- | --- | --- | --- | --- |
| COC(=O)c1ccccc1NC(=O)CSC(N)=O [Compound 1] | 35.86 | 33.64 | – | – | – |
| CCOC(=O)c1ccccc1NC(=O)CSC(N)=O [Compound 2] | 35.50 | 40.09 | – | – | – |
| Cc1ccc(NC(=O)CSC(N)=O)cc1Cl [Compound 3] | 32.27 | 41.63 | – | – | – |
| Cc1cccc(NC(=O)CSC(N)=O)c1C [Compound 4] | 37.50 | 43.00 | – | – | – |
| Cc1ccc(Cl)cc1NC(=O)CSC(N)=O [Compound 5] | 56.73 | 47.85 | – | – | – |
| NC(=O)SCC(=O)Nc1cccc(O)c1 [Compound 6] | 45.08 | 49.68 | – | – | – |
| COc1ccc(NC(=O)CSC(N)=O)cc1 [Compound 7] | 36.45 | 49.85 | – | – | – |
| NC(=O)SCC(=O)Nc1ccccc1Cl [Compound 8] | 32.72 | 51.98 | – | – | – |
| COc1cccc(NC(=O)CSC(N)=O)c1 [Compound 9] | 35.50 | 53.30 | – | – | – |
| Cc1cccc(NC(=O)CSC(N)=O)c1 [Compound 10] | 49.10 | 55.40 | – | – | – |
| NC(=O)SCC(=O)Nc1ccccc1Br [Compound 11] | 36.60 | 56.70 | – | – | – |
| CC(=O)c1ccc(NC(=O)CSC(N)=O)cc1 [Compound 12] | 59.20 | 64.90 | – | – | – |
| NC(=O)SCC(=O)Nc1cccc(F)c1 [Compound 13] | 33.60 | 67.60 | – | – | – |
| COc1ccccc1NC(=O)CSC(N)=O [Compound 14] | 46.80 | 68.60 | – | – | – |
| COc1ccccc1NC(=O)CSC(N)=O [Compound 5947535] | – | – | 99128 | 169923 | 572429 |
| NC(=O)SCC(=O)Nc1ccccc1O [Compound 5947920] | – | – | 31966 | 33599 | 35234 |
| NC(=O)SCC(=O)Nc1ccc(Br)cc1 [Compound 5948339] | – | – | 99889 | 122318 | 382242 |
| Cc1ccc(Cl)cc1NC(=O)CSC(N)=O [Compound 5948544] | – | – | 120140 | 98180 | 418594 |

| Structure (SMILES) | % Activity of AHL Standard, 3 oxo C10HSL [1] [%] | % Activity of AHL Standard, 3 oxo C12HSL [1] [%] | Signal 671/672 [2] | Signal 673/674 [2] | Signal 674/875 [2] |
| --- | --- | --- | --- | --- | --- |
| COc1ccc(NC(=O)CSC(N)=O)cc1 [Compound 5948690] | – | – | 580722 | 341731 | 1742777 |
| NC(=O)SCC(=O)Nc1ccc(Cl)c(Cl)c1 [Compound 5949527] | – | – | 314238 | 171491 | 686157 |
| NC(=O)SCC(=O)Nc1ccccc1Br [Compound 5949674] | – | – | 184012 | 227644 | 1811011 |
| NC(=O)SCC(=O)Nc1cccc(F)c1 [Compound 5949713] | – | – | 100580 | 97648 | 265386 |
| COc1ccc(NC(=O)CSC(N)=O)c(OC)c1 [Compound 5950824] | – | – | 358647 | 332745 | 1769017 |
| COC(=O)c1ccccc1NC(=O)CSC(N)=O [Compound 5951673] | – | – | 135505 | 176618 | 1041625 |
| COC(=O)c1ccc(NC(=O)CSC(N)=O)cc1 [Compound 5952057] | – | – | 161090 | 186369 | 1124336 |
| CCOC(=O)c1ccccc1NC(=O)CSC(N)=O [Compound 5952120] | – | – | 29681 | 31840 | 32358 |
| CC(=O)c1ccc(NC(=O)CSC(N)=O)cc1 [Compound 5952389] | – | – | 464145 | 594209 | 1805803 |
| Cc1ccc(NC(=O)CSC(N)=O)cc1Cl [Compound 5952472] | – | – | 176752 | 223255 | 652341 |
| NC(=O)SCC(=O)Nc1cccc(Cl)c1 [Compound 5953997] | – | – | 71274 | 87420 | 218815 |
| NC(=O)SCC(=O)Nc1ccc(I)cc1 [Compound 5955203] | – | – | 375590 | 386242 | 1805793 |
| Cc1ccc(NC(=O)CSC(N)=O)c(C)c1 [Compound 5955325] | – | – | 120271 | 134098 | 694077 |
| Cc1cccc(NC(=O)CSC(N)=O)c1 [Compound 5955821] | – | – | 266776 | 285870 | 1575457 |
| NC(=O)SCC(=O)Nc1ccccc1Cl [Compound 5956488] | – | – | 120221 | 145117 | 867440 |
| Cc1cccc(NC(=O)CSC(N)=O)c1C [Compound 5956611] | – | – | 116987 | 131695 | 703195 |
| COc1cccc(NC(=O)CSC(N)=O)c1 [Compound 5956868] | – | – | 246680 | 243693 | 1277307 |
